Read-outs that look alike come from different tables or passages of the source.

The target in this assay is T1, human leucocyte elastase (HLE) (Homo sapiens, UniProt P08246).
T1 construct: purchased Calbiochem
T1 sequence (P08246 30-267): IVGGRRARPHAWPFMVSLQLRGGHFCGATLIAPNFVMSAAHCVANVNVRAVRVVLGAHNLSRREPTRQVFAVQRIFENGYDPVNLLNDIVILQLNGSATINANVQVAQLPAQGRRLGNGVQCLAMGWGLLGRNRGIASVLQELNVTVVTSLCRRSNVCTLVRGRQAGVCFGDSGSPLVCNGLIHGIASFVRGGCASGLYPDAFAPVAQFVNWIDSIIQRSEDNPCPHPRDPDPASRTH
The assay is described as follows: HLE (human leucocyte elastase) inhibition kinetics. Type of assay: biochemical. The settings on record: 37° C., pH 7.4; for kinact/KI: rate of formation of the HLE-inhibitor complex, read-out: "Efficacy" K5 /Ki. From the text: Vs =steady state rate Vz =zero time rate Vo =rate at [I]=0 Km =Michaelis constant for the enzyme substrate pair (independently determined under the same experimental conditions). Full details of the Experimental Protocol are reported in […] et al., Eur. J. Med. Chem. 1992, 27, 875-890.

[1] abbreviates: Table 3, * outside determination limits.
Where [2] appears, read: Table 3, * outside determination limits, read-out: "Potency" Ki ^33.
[3] abbreviates: Table 2, apparent dissociation constant of HLE-inhibitor complex at steady rate, read-out: Potency Ki^SS.

In the case of `CO[C@H]1C(=O)N2C(C(=O)C(C)(C)C)=C(C)C(OC(=O)c3ccc(CSc4nc(=O)c(O)nn4C)cc3)S(=O)(=O)[C@H]12` (stereo partly drawn) [Compound 38, 4-tert-Butylcarbonyl-2-{4-[(2,5-dihydro-6-hydroxy-2-methyl-5-oxo-1,2,4-triazin-3-yl)thiomethyl]benzoyloxy}-7α-methoxy-3-methyl-3-cephem 1,1-dioxide], the “"Efficacy" K5 /K1” value under setting [1] was < 2 M⁻¹ s⁻¹. In addition, the Ki under setting [2] came out at 700 µM. As for `CO[C@H]1C(=O)N2C(C(=O)N3CCCC3)=C(CSc3nc(=O)c(O)nn3C)CS(=O)(=O)[C@H]12` [L-659,286, reference compound], the Ki under setting [3] was found to be 0.075 µM. Moreover, the kinact/KI (Table 2) turned out to be 9200 M⁻¹ s⁻¹. On to `CO[C@H]1C(=O)N2C(C(=O)C(C)(C)C)=C(C)CS(=O)(=O)[C@H]12` [FCE 25500, reference compound], for which, under setting [3], the Ki came to 1.3 µM. Moreover, the kinact/KI (Table 2) worked out at 60 M⁻¹ s⁻¹.

For `CCCCC(CC)C(=O)OC1C(C)=C(C(=O)C(C)(C)C)N2C(=O)[C@H](OC)[C@H]2S1(=O)=O` (stereo partly drawn) [Compound 96, 4-tert-Butylcarbonyl-2-(2-ethylhexanoyl)oxy-7α-methoxy-3-methyl-3-cephem 1,1-dioxide], the “"Efficacy" K5 /K1” value under setting [1] was < 2 M⁻¹ s⁻¹. The same measure, in the same setting: under `CO[C@H]1C(=O)N2C(C(=O)C(C)(C)C)=C(C)C(OC(=O)c3ccc4ccccc4c3)S(=O)(=O)[C@H]12` (stereo partly drawn) [Compound 11] stands < 2 M⁻¹ s⁻¹; under `CO[C@H]1C(=O)N2C(C(=O)c3ccccc3)=C(C)C(OC(=O)c3ccccc3)S(=O)(=O)[C@H]12` (stereo partly drawn) [Compound 24, 2-Benzoyloxy-7α-methoxy-3-methyl-4-phenylcarbonyl-3-cephem 1,1-dioxide], 8 M⁻¹ s⁻¹.

With `CO[C@H]1C(=O)N2C(C(=O)C(C)(C)C)=C(C)C(OC(=O)c3ccc(C(=O)c4ccccc4)cc3)S(=O)(=O)[C@H]12` (stereo partly drawn) [Compound 83, 2-[4-(Benzoyl)benzoyloxy]-4-tert-butylcarbonyl-7α-methoxy-3-methyl-3-cephem 1,1-dioxide], the “"Efficacy" K5 /K1” value under setting [1] amounted to 2 M⁻¹ s⁻¹. Further, the Ki under setting [2] stood at 500 µM. For the compound `CO[C@H]1C(=O)N2C(C(=O)C(C)(C)C)=C(CSc3nnnn3C)C(OC(=O)c3ccccc3)S(=O)(=O)[C@H]12` (stereo partly drawn) [Compound 19, 2-Benzoyloxy-4-tert-butylcarbonyl-7α-methoxy-3-(1-methyl-1,2,3,4-tetrazol-5-yl)thiomethyl-3-cephem 1,1-dioxide], under setting [1], the “"Efficacy" K5 /K1” value is < 2 M⁻¹ s⁻¹. Take `CO[C@H]1C(=O)N2C(C(=O)C(C)(C)C)=C(C)C(OC(=O)c3ccccc3)S(=O)(=O)[C@H]12` (stereo partly drawn) [Compound 2, 2-Benzoyloxy-4-tert-butylcarbonyl-7α-methoxy-3-methyl-3-cephem 1,1-dioxide]: the Ki under setting [3] was < 0.002 µM.

As for `CO[C@H]1C(=O)N2C(C(=O)c3ccccc3)=C(C)C(OC(=O)c3ccc(C(=O)O)cc3)S(=O)(=O)[C@H]12` (stereo partly drawn) [Compound 25, 4-Benzoyl-2-(4-carboxybenzoyl)oxy-7α-methoxy-3-methyl-3-cephem 1,1-dioxide], under setting [1], the “"Efficacy" K5 /K1” value stood at 29 M⁻¹ s⁻¹. In addition, the Ki under setting [2] is 34 µM.

The values above are taken from US5587373A, “2-acyloxycephem derivatives” (Farmitalia Carlo Erba S.r.l., priority 1993, dated 1996).
